In US20260158011A1 (Achieve Life Sciences, Inc., priority 2023, published 2026):
“And” between values parts separate entries of the source, which are not always exact repeats. Equal entries are not always repeated. Where two headings read alike, the source gives them in different places.

System: adult e-cigarette users
Details: for Relative Risk, vaping cessation Week 9 to 12: Row 1 (X = 0) over Row 2 (X = 1); for Common Relative Risk, Logit / Common Relative Risk, Mantel-Haenszel: X = 0 over X = 1, controlling for S; for Relative Risk, Logit / Relative Risk, Mantel-Haenszel: X = 0 over X = 1, no stratifier
Experimental: This Example describes a Phase 2 ORCA-V1 trial evaluated 160 adult e-cigarette users at 5 clinical trial locations in the United States. […] ORCA-V1 participants were randomized to receive 3 mg cytisinicline three times daily or placebo for 12 weeks in combination with standard cessation behavioral support. The dose and administration of cytisinicline in the ORCA-V1 study is identical to that used in the Phase 3 registrational trials for smoking cessation.
ORCA-V1 evaluated the efficacy and safety of 3 mg cytisinicline dosed three times daily for 12 weeks compared to placebo in 160 adult users of e-cigarettes or nicotine vapes. All participants received behavioral support for nicotine cessation.
Subjects were stratified on whether they have smoked >100 cigarettes in their lifetime (yes vs no) (FIG. 57). […] Missing data may be assumed as reported vaping.
Key inclusion criteria consisted of daily electronic cigarette usage (age ≥18 years): willing to bring e-cigarette or nicotine device used to clinical site and document specific product type, flavor, and nicotine level. Individuals were required to test positive for cotinine using the Alere iScreen® Oral Fluid Screening Device (Positive testing at 30 ng/mL cotinine level). Individuals required to be willing to set quit date within 7-14 days of after randomization and to participate in vaping cessation behavioral support provided throughout the study.
Key exclusion criteria included those currently smoking, or having smoked within 4 weeks prior to study randomization, and those with Expired Carbon Monoxide (CO) levels ≥10 ppm, indicating recent combustible tobacco use (i.e., no dual users). Those with clinically abnormal laboratory values were also excluded, as well as those with positive urinary screen for illicit drugs (THC not included in screen). Those with uncontrolled hypertension (BP 160/100 mmHg), abnormal ECG, or recent acute myocardial infarction, stroke, or heart failure admission in past 3 months were excluded. Psychiatric exclusions included (1) schizophrenia or bipolar disorder, (2) current moderate to severe depression symptoms, (3) high risk of suicide ideation. Pregnant or breast-feeding women or unwilling to use acceptable methods of birth control during the study were also excluded.
The first measurement consisted of biochemically verified continuous vaping abstinence during the last 4 weeks of treatment after 12 weeks of cytisinicline treatment vs placebo. Vaping abstinence during weeks 9-12 was verified with no reported vaping with weekly saliva cotinine levels <10 ng/mL.
A second measurement consisted of biochemically verified continuous vaping abstinence at any time during treatment, with vaping abstinence at Week 3-6 or Week 6-9 for of cytisinicline treatment vs placebo. 7-day point prevalence rates were compared for vaping abstinence (Week 2 to 12) (FIG. 62). An additional measurement included reduction in daily vaping as measured by cotinine, where cytisinicline treatment vs placebo for a reduction in nicotine vaping using weekly quantitative cotinine levels from Week 2 to Week 12. Safety was assessed by adverse effects and serious adverse effects, considering number, severity, and attribution to study drug.

[1] = 3 mg cytisinicline TID 12 weeks
[2] = All Randomized Set, Cytisinicline 12 Weeks N = 107, saliva cotinine <10 ng/mL
[3] = X = 1, Table of X by Y, all randomized, 107 subjects in row
[4] = X = 1, stratum S = 0 (>100 cigarettes = No), 30 subjects in row
[5] = X = 1, stratum S = 1 (>100 cigarettes = Yes), 77 subjects in row
[6] = share of all N = 107 of the arm
[7] = vs placebo, no stratifier, N=160, vaping cessation Week 9 to 12

O=c1cccc2n1C[C@@H]1CNC[C@H]2C1 [cytisine, (−)-Cytisine]
Odds ratio versus placebo, vaping cessation weeks 9-12, primary analysis with prospective stratification factor [1]: 2.6 and 2.64
Odds ratio versus placebo, vaping cessation weeks 9-12, site as a stratification factor [1]: 3.03
Odds ratio versus placebo, vaping cessation weeks 9-12, without any stratification factor [1]: 2.62
Vaping cessation rate during weeks 9-12 (3 mg cytisinicline TID 12 weeks, saliva cotinine <10 ng/mL): 31.8%
Continuous Vaping Abstinence Week 9 to Week 16, n (%) (12 Weeks arm N = 107, All Randomized Set): 25 (23.4) n (%)
Vaping Cessation from Week 3 to Week 6, percent of subjects [2]: 24.3%
Vaping Cessation from Week 6 to Week 9, percent of subjects [2]: 30.8%
Vaping Cessation From Week 9 to Week 12, percent of subjects (All Randomized Set, Cytisinicline 12 wks N = 107, saliva cotinine <10 ng/mL): 31.8%
7-Day Point Prevalence Abstinence, n (%) (Week 2, 12 Weeks arm N = 107, All Randomized Set): 15 (14.0) n (%)
7-Day Point Prevalence Abstinence, Difference in Proportions (Week 2, vs placebo (N = 53)): 0.06
7-Day Point Prevalence Abstinence, Odds Ratio (Week 2, vs placebo (N = 53)): 2.00
7-Day Point Prevalence Abstinence, n (%) (Week 3, 12 Weeks arm N = 107, All Randomized Set): 36 (33.6) n (%)
7-Day Point Prevalence Abstinence, Difference in Proportions (Week 3, vs placebo (N = 53)): 0.11
7-Day Point Prevalence Abstinence, Odds Ratio (Week 3, vs placebo (N = 53)): 1.73
7-Day Point Prevalence Abstinence, n (%) (Week 4, 12 Weeks arm N = 107, All Randomized Set): 53 (49.5) n (%)
7-Day Point Prevalence Abstinence, Difference in Proportions (Week 4, vs placebo (N = 53)): 0.25
7-Day Point Prevalence Abstinence, Odds Ratio (Week 4, vs placebo (N = 53)): 3.02
7-Day Point Prevalence Abstinence, n (%) (Week 5, 12 Weeks arm N = 107, All Randomized Set): 45 (42.1) n (%)
7-Day Point Prevalence Abstinence, Difference in Proportions (Week 5, vs placebo (N = 53)): 0.14
7-Day Point Prevalence Abstinence, Odds Ratio (Week 5, vs placebo (N = 53)): 1.84
7-Day Point Prevalence Abstinence, n (%) (Week 6, 12 Weeks arm N = 107, All Randomized Set): 44 (41.1) n (%)
7-Day Point Prevalence Abstinence, Difference in Proportions (Week 6, vs placebo (N = 53)): 0.17
7-Day Point Prevalence Abstinence, Odds Ratio (Week 6, vs placebo (N = 53)): 2.15
7-Day Point Prevalence Abstinence, n (%) (Week 7, 12 Weeks arm N = 107, All Randomized Set): 52 (48.6) n (%)
7-Day Point Prevalence Abstinence, Difference in Proportions (Week 7, vs placebo (N = 53)): 0.26
7-Day Point Prevalence Abstinence, Odds Ratio (Week 7, vs placebo (N = 53)): 3.23
7-Day Point Prevalence Abstinence, n (%) (Week 8, 12 Weeks arm N = 107, All Randomized Set): 46 (43.0) n (%)
7-Day Point Prevalence Abstinence, Difference in Proportions (Week 8, vs placebo (N = 53)): 0.18
7-Day Point Prevalence Abstinence, Odds Ratio (Week 8, vs placebo (N = 53)): 2.32
7-Day Point Prevalence Abstinence, n (%) (Week 9, 12 Weeks arm N = 107, All Randomized Set): 45 (42.1) n (%)
7-Day Point Prevalence Abstinence, Difference in Proportions (Week 9, vs placebo (N = 53)): 0.18
7-Day Point Prevalence Abstinence, Odds Ratio (Week 9, vs placebo (N = 53)): 2.23
7-Day Point Prevalence Abstinence, n (%) (Week 10, 12 Weeks arm N = 107, All Randomized Set): 44 (41.1) n (%)
7-Day Point Prevalence Abstinence, Difference in Proportions (Week 10, vs placebo (N = 53)): 0.13
7-Day Point Prevalence Abstinence, Odds Ratio (Week 10, vs placebo (N = 53)): 1.77
7-Day Point Prevalence Abstinence, n (%) (Week 11, 12 Weeks arm N = 107, All Randomized Set): 40 (37.4) n (%)
7-Day Point Prevalence Abstinence, Difference in Proportions (Week 11, vs placebo (N = 53)): 0.13
7-Day Point Prevalence Abstinence, Odds Ratio (Week 11, vs placebo (N = 53)): 1.84
7-Day Point Prevalence Abstinence, n (%) (Week 12, 12 Weeks arm N = 107, All Randomized Set): 41 (38.3) n (%)
7-Day Point Prevalence Abstinence, Difference in Proportions (Week 12, vs placebo (N = 53)): 0.16
7-Day Point Prevalence Abstinence, Odds Ratio (Week 12, vs placebo (N = 53)): 2.12
Vaping cessation Week 9 to 12, Row Pct Y = 0 (failure) (X = 1, Table of X by Y, all randomized): 68.22 Pct
Vaping cessation Week 9 to 12, Frequency Y = 0 (failure) [3]: 73
Vaping cessation Week 9 to 12, Row Pct Y = 1 (success) [3]: 31.78 Pct
Vaping cessation Week 9 to 12, Row Pct Y = 0 (failure) (X = 1, stratum S = 0 (>100 cigarettes = No)): 63.33 Pct
Vaping cessation Week 9 to 12, Frequency Y = 0 (failure) [4]: 19
Vaping cessation Week 9 to 12, Row Pct Y = 1 (success) [4]: 36.67 Pct
Vaping cessation Week 9 to 12, Row Pct Y = 0 (failure) (X = 1, stratum S = 1 (>100 cigarettes = Yes)): 70.13 Pct
Vaping cessation Week 9 to 12, Frequency Y = 0 (failure) [5]: 54
Vaping cessation Week 9 to 12, Row Pct Y = 1 (success) [5]: 29.87 Pct
Column 1 Risk Estimates, Risk, Row 2 (Y = 0 (failure of vaping cessation Week 9 to 12), X = 1, N=160): 0.6822
Relative Risk, vaping cessation Week 9 to 12 (Y = 0 (failure), stratum S = 0, N=45): 1.2632
Relative Risk, vaping cessation Week 9 to 12 (Y = 0 (failure), stratum S = 1, N=115): 1.2383
Common Relative Risk, Logit (Y = 0 (failure), N=160): 1.2435
Common Relative Risk, Mantel-Haenszel (Y = 0 (failure), N=160): 1.2448
Relative Risk, Logit (Y = 0 (failure), N=160): 1.2445
Relative Risk, Mantel-Haenszel (Y = 0 (failure), N=160): 1.2445
Relative Risk, vaping cessation Week 9 to 12 (Y = 1 (success), stratum S = 0, N=45): 0.5455
Relative Risk, vaping cessation Week 9 to 12 (Y = 1 (success), stratum S = 1, N=115): 0.4405
Column 2 Risk Difference (Row 1-Row 2) (Y = 1 (success), X = 0 minus X = 1, N=160): −0.1668
Common Relative Risk, Logit (Y = 1 (success), N=160): 0.4784
Common Relative Risk, Mantel-Haenszel (Y = 1 (success), N=160): 0.4747
Relative Risk, Logit (Y = 1 (success), N=160): 0.4750
Relative Risk, Mantel-Haenszel (Y = 1 (success), N=160): 0.4750
Column 2 Risk Estimates, Risk, Row 2 (Y = 1 (vaping cessation Week 9 to 12), X = 1, N=160): 0.3178
Difference in Proportions, Vaping Cessation from Week 3 to Week 6 (placebo group as reference): 0.09
Difference in Proportions, Vaping Cessation from Week 6 to Week 9 (placebo group as reference): 0.14
Odds Ratio, Vaping Cessation from Week 3 to Week 6 (placebo group as reference): 1.81
Odds Ratio, Vaping Cessation from Week 6 to Week 9 (placebo group as reference): 2.18
Marginal Difference in Proportions, Vaping Cessation from Week 9 to Week 12 (placebo group as reference, All Randomized Set): 0.17
Vaping Cessation From Week 9 to Week 12, value in parentheses, >100 Cigarettes smoke in Lifetime = No [6]: 10.3
Vaping Cessation From Week 9 to Week 12, value in parentheses, >100 Cigarettes smoke in Lifetime = Yes [6]: 21.5
Vaping Cessation From Week 9 to Week 12, number of subjects, >100 Cigarettes smoke in Lifetime = No (stratum S = 0 (N=45; 30 on cytisinicline), Frequency X = 1, Y = 1 in FREQ table): 11
Vaping Cessation From Week 9 to Week 12, number of subjects, >100 Cigarettes smoke in Lifetime = Yes (stratum S = 1 (N=115; 77 on cytisinicline), Frequency X = 1, Y = 1 in FREQ table): 23
Continuous Vaping Abstinence Week 9 to Week 16, Difference in Proportions (vs placebo (N = 53)): 0.10
Continuous Vaping Abstinence Week 9 to Week 16, Odds Ratio (vs placebo (N = 53)): 2.00
Common Odds Ratio (Mantel-Haenszel), vaping cessation Week 9 to 12 (vs placebo, controlling for S (>100 Cigarettes Smoked in Lifetime no, yes), N=160, listed as Cytisinicline): 2.6375 and 2.64
Common Odds Ratio (Logit), vaping cessation Week 9 to 12 (vs placebo, controlling for S, N=160): 2.6304
Common Odds Ratio (Logit), summary statistics for X by Y [7]: 2.6199
Common Odds Ratio (Mantel-Haenszel), summary statistics for X by Y [7]: 2.6199
Odds Ratio, vaping cessation Week 9 to 12 (vs placebo, stratum S = 0 (>100 cigarettes = No), N=45): 2.3158
Odds Ratio, vaping cessation Week 9 to 12 (vs placebo, stratum S = 1 (>100 cigarettes = Yes), N=115): 2.8111
